Source: patent publication US10124033B2, “Peptides and methods of use” (BAXALTA INCORPORATED, priority 2014, dated 2018)
Residues, ends and D or L forms follow the SMILES beside them.

Experiments:
human GAS6 = molecular target: T1, human GAS6 (Homo sapiens, UniProt Q14393); assay: Biacore binding to anti-target GAS6
T1 sequence (Q14393 31-678): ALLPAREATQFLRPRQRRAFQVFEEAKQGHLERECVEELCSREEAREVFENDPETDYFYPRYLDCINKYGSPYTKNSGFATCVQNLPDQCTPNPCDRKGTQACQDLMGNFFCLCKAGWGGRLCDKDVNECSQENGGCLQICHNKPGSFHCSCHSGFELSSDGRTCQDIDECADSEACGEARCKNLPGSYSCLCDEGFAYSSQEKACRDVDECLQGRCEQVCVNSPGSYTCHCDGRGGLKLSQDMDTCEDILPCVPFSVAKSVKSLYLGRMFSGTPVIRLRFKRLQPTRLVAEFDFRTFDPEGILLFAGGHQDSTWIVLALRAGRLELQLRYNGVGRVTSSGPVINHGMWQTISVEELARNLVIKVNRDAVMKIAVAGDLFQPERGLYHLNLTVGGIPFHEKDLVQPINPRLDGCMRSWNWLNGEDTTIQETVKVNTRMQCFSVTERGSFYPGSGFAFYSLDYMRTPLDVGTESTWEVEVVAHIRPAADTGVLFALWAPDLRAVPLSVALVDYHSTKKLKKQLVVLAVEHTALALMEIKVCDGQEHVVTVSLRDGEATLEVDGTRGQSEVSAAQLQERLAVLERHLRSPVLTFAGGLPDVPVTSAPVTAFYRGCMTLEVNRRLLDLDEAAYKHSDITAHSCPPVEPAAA
Procedure: Protein S affinity also was determined via Biacore (Biacore 3000 or Biacore T200) using human full-length Protein S and human GAS6. Briefly, 1000 RU of Protein S or GAS6 were immobilized on a CMS chip. In order to probe the kinetics of Protein S binding peptides to Protein S, the peptides were injected at various concentrations in a HBS-buffer containing 3 mM CaCl2 and 1% DMSO to the flow cell and allowed to interact with the immobilized proteins on the sensor chip. The chip could be regenerated with 4 M MgCl2 in HBS-buffer. Sensorgrams were fitted to a Langmuir binding model for the determination of kon and koff and the calculation of KD. Peptides were tested on their specificity to Protein S with peptide binding studies on the anti-target GAS6.
Interactions with the anti-target GAS6 were measured via Biacore (surface plasmon resonance) (see Example 2). The maximum signal from the interaction of the peptides with human GAS6 was much lower than the signals obtained with Protein S as interaction partner. Kinetic analysis of the low GAS6 binding signals was error prone, and sensorgrams were reviewed visually to estimate anti-target binding. […] The affinity of JBS2572 for the anti-target was at least 10 times less (indeed, at least 150 times less) than the affinity of the peptides for human Protein S. The data provided by this example confirm that peptides described herein specifically bind Protein S.

C4BP/PS complex = molecular target: T2, C4BP/PS complex (Homo sapiens, UniProt P07225); assay: LANCE IC50 assay on preformed C4BP/PS complex; format: binding
T2 sequence (P07225 41-676 limits assumed): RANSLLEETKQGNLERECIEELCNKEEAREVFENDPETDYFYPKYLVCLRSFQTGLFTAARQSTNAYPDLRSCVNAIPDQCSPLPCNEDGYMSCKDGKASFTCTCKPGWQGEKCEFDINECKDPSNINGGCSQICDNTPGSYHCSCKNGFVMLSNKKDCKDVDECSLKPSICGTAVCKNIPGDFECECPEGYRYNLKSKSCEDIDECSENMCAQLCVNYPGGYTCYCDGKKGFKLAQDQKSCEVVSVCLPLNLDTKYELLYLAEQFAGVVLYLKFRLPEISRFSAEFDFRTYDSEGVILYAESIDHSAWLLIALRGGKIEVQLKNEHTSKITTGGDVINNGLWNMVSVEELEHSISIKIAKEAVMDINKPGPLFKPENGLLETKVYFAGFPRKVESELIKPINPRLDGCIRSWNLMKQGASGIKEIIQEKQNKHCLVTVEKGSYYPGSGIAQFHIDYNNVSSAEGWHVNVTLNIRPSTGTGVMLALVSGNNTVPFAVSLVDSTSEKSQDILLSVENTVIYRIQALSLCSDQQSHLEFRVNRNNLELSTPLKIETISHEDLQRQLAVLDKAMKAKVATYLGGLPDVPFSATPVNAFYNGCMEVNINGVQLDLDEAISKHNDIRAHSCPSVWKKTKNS
Procedure: To investigate the effect of the peptides described herein on PS/C4BP complexes, a LANCE IC50 assay was established using methods similar to those described above. JBS2572 or JBS3216 was added to a preformed C4BP/PS complex. Changes in the complex concentration were followed by recording the TR-FRET signal. For both peptides, a time- and concentration-dependent dissociation of the C4BP/PS complex was observed. The IC50 of JBS3216 was 0.3 nM, and the IC50 of JBS2572 was 2 nM. The time-dependency of the complex reduction was similar for both peptides. After two hours of incubation in the presence of 100 nM JBS2572 or JBS3216, the C4BP/PS complex was reduced to 60% and 50%, respectively. In addition, binding of biotinylated JBS2572 to Protein S was inhibited by C4BP in the LANCE IC50 assay. Pull-down experiments where JBS2697 was coupled to streptavidin sepharose and incubated for one hour at room temperature with (a) Protein S (1.6 pmol) (b) C4BP (8.5 pmol) and (c) Protein S (1.6 pmol)+C4BP (8.5 pmol) supported the results from the modified LANCE IC50 assay.

CC(=O)N[C@H](C(=O)NCC(=O)N[C@@H](CC(C)C)C(=O)N[C@H](C(=O)N[C@@H](CO)C(=O)N[C@@H](C)C(=O)NCC(=O)N[C@@H](Cc1c[nH]c2ccccc12)C(=O)N[C@@H](Cc1ccc(O)cc1)C(=O)N[C@@H](CC(=O)O)C(=O)N[C@@H](Cc1ccc(O)cc1)C(=O)N[C@@H](CC(N)=O)C(=O)N[C@@H](Cc1ccccc1)C(=O)N[C@@H](CC(=O)O)C(=O)N[C@@H](Cc1c[nH]cn1)C(=O)N[C@@H](Cc1ccc(O)cc1)C(=O)N[C@@H](CCCNC(=N)N)C(=O)N[C@@H](CCC(=O)O)C(=O)N[C@@H](Cc1ccccc1)C(=O)N[C@H](C(N)=O)[C@@H](C)O)C(C)C)[C@@H](C)O [JBS2572] (Ac-TGLVSAGWYDYNFDHYREFT-NH2)
affinity for anti-target GAS6 relative to human Protein S (times less) (human GAS6): at least 150 times | binding to GAS6 (human GAS6; 1 μM peptide, sensorgrams reviewed visually): no specific binding | IC50 (C4BP/PS complex; peptide added to preformed C4BP/PS complex, TR-FRET, read-out: IC50 of dissociation of preformed C4BP/PS complex): 2 nM | C4BP/PS complex reduced to (C4BP/PS complex; two hours of incubation, 100 nM peptide): 60%
